US12509460B2 (Skyhawk Therapeutics, Inc., priority 2019, dated 2025)
pEC50: −log10 of the molar value. Like-named read-outs stand apart in the source and are kept apart here.

How the values were obtained:
[1] = system: mHTT protein in GM04724 (CAG 70/20) Huntington's disease patient lymphoblast cells; experiment: mHTT protein assay, 2B7-MW1 assay via Mesoscale Discovery (MSD); format: cell-based, human
Procedure: Example A10: mHTT Protein Assay
Compounds are tested on GM04724 (CAG 70/20) Huntington's disease patient lymphoblast cells at doses ranging from 10 μM to 0.6 nM. 4,500 cells/well are seeded in 384 well plates. One plate replica is carried out for parallel viability testing by CellTiter Glo (CTG). Compounds are incubated for 48 hours. mHTT protein levels are assessed by the 2B7-MW1 assay via Mesoscale Discovery (MSD) as previously reported (Macdonald et al., 2014). The antibody pair is comprised of previously characterized monoclonals (2B7 and MW1) interrogating two regions for HTT conformation and biological properties: the N, 17 domain and the polyQ domain (Baldo et al., 2012; Ko et., 2001). 2B7-MW1 is […] specific levels of HTT at the time of treatment. 2B7-MW1 is dependent on polyQ expansion (e.g., the higher the expansion the higher the signal) and on mHTT size (e.g., a similar polyQ will give higher signal with smaller HTT size). The viability readout is carried out by CTG according to the manufacturer's instructions.

[2] = system: SMN protein in spinal muscular atrophy (SMA) patient fibroblasts (GM03813, Coriell); experiment: SMN protein assay, Mesoscale Discovery (MSD); format: cell-based, human; details: for pEC50: read-out: SMN2 protein EC50
Procedure: Example A12: SMN Protein Assay
Compounds are tested on spinal muscular atrophy (SMA) patient fibroblasts (GM03813, Coriell) at doses ranging from 2.5 μM to 0.6 nM. 7000 cells/well are seeded in 96-well plates. Compounds are incubated for 48 hours and the cells were lysed with 100 μL of lysis buffer. 20 μL of lysate is used for SMN protein measurement by Mesoscale Discovery (MSD) assay developed by PharmOptima (Michigan). A standard curve prepared with SMN protein ranging from 1 μg/ml to 19.5 pg/ml is used in each MSD plate to calculate the absolute SMN protein amount in each sample.

MDR1 (P-gp) = experiment: Blood-brain-barrier (BBB) penetration potential via MDCK-MDR1 permeability assay; details: dog; for efflux ratio at 120 min, 5 μM: MDCK-MDR1, pH 7.4, MDCK-MDR1: Efflux; for Papp A→B at 120 min, 5 μM: MDCK-MDR1, pH 7.4, MDCK-MDR1: Papp A-B; for Papp B→A at 120 min, 5 μM: MDCK-MDR1, pH 7.4, MDCK-MDR1: Papp B-A
[3] = system: MDR1-MDCK cell monolayers; experiment: as above
MDR1 = experiment: as above; details: dog, MDCK-MDR1, pH 7.4, MDCK-MDR1: Efflux, efflux ratio
[4] = GM04724 Huntington's disease patient lymphoblasts
[5] = SMA patient fibroblasts GM03813, 48 hours, MSD
[6] = GM04724 (CAG 70/20) Huntington's disease patient lymphoblasts

| Compound | pEC50 [1, 4] | pEC50 [2, 5] | efflux ratio at 120 min, 5 μM (MDR1 (P-gp); efflux ratio) | Papp A→B at 120 min, 5 μM (MDR1 (P-gp); A-B direction) [×10⁻⁶ cm/s] | Papp B→A at 120 min, 5 μM (MDR1 (P-gp); B-A direction) [×10⁻⁶ cm/s] | MDCK-MDR1: % Recov A-B ([3]; A-B direction) [%] | MDCK-MDR1: % Recov B-A ([3]; B-A direction) [%] | efflux ratio at 120 min, 5 μM (MDR1) | mHTT protein EC50 [1, 4] | SMN2 protein EC50 [2, 5] | pEC50 [1, 6] | pEC50 ([2]; SMA patient fibroblasts (GM03813), 48 hours) | efflux ratio at 120 min, 5 μM (MDR1 (P-gp)) | Papp A→B at 120 min, 5 μM (MDR1 (P-gp); A-B) [×10⁻⁶ cm/s] | Papp B→A at 120 min, 5 μM (MDR1 (P-gp); B-A) [×10⁻⁶ cm/s] | MDCK-MDR1: % Recov A-B ([3]; A-B) [%] | MDCK-MDR1: % Recov B-A ([3]; B-A) [%] |
| --- | --- | --- | --- | --- | --- | --- | --- | --- | --- | --- | --- | --- | --- | --- | --- | --- | --- |
| CN(c1ccc(-c2ccc(-c3cnn(C)c3)cc2O)nn1)[C@H]1C[C@H]2CC(F)(F)[C@H](C1)N2 (single isomer, unassigned) [Compound 3B] | 7.00 to 7.29 | 6.30 to 7.00 | 1 | 16.3 | 22.7 | 80 | 71 |  |  |  |  |  |  |  |  |  |  |
| CC#Cc1ccc(-c2ccc(N(C)C3CC4CCC(N4)C3F)nn2)c(O)c1 (single isomer, unassigned) [Compound 30B] | 7.00 to 7.29 | 6.30 to 7.00 | 1 | 10.6 | 11 | 38 | 69 |  |  |  |  |  |  |  |  |  |  |
| CN(c1ccc(-c2cc3c(=O)n(C)ccc3s2)nn1)[C@@H]1C[C@H]2CC[C@H](N2)[C@@H]1F (single isomer, unassigned) [Compound 68A] | 6.30 to 7.00 | 7.00 to 7.29 |  | 0.41 | 45.6 | 92 | 78 | 111 |  |  |  |  |  |  |  |  |  |
| CN(c1ccc(-c2ccc(-c3cnn(C)c3)cc2O)nn1)[C@@H]1C[C@H]2CCC[C@H](N2)[C@@H]1F [Compound 15A, 2-(6-(((1S,2S,3R,5R)-2-fluoro-9-azabicyclo[3.3.1]nonan-3-yl)(methyl)amino)pyridazin-3-yl)-5-(1-methyl-1H-pyrazol-4-yl)phenol] | 7.82 to 11.00 | 7.82 to 11.00 |  | 2.76 | 34.4 | 61 | 70 | 12 |  |  |  |  |  |  |  |  |  |
| COc1cn(-c2ccc(-c3ccc(N(C)[C@H]4C[C@@H]5CC(F)(F)[C@H](C4)N5)nn3)c(O)c2)cn1 [Compound 19B, 2-(6-(((1R,3S,5S)-6,6-difluoro-8-azabicyclo[3.2.1]octan-3-yl)(methyl)amino)pyridazin-3-yl)-5-(4-methoxy-1H-imidazol-1-yl)phenol] |  | 7.00 to 7.29 |  | 12.2 | 63.3 | 91 | 88 | 5 | E (501 ≤ E ≤ 10.000) |  |  |  |  |  |  |  |  |
| CN(c1ccc(-c2ccc(-c3cnn(C(F)F)c3)cc2O)nn1)[C@H]1C[C@@H]2CCC[C@@H](N2)[C@H]1F [Compound 21B] | 7.30 to 7.80 | 7.82 to 11.00 |  | 1.73 | 30.4 | 39 | 68 | 18 |  |  |  |  |  |  |  |  |  |
| CN(c1ccc(-c2cc(F)c(-c3ccn(C)c(=O)c3)cc2O)nn1)[C@H]1C[C@@H]2CC(F)(F)[C@H](C1)N2 [Compound 22B, 4-(4-(6-(((1R,3S,5S)-6,6-difluoro-8-azabicyclo[3.2.1]octan-3-yl)(methyl)amino)pyridazin-3-yl)-2-fluoro-5-hydroxyphenyl)-1-methylpyridin-2(1H)-one] |  | 7.00 to 7.29 |  | 2.83 | 87.7 | 88 | 95 | 31 |  |  |  |  |  |  |  |  |  |
| Cc1cnc(-c2ccc(-c3ccc(N(C)[C@@H]4C[C@H]5CCC[C@H](N5)[C@@H]4F)nn3)c(O)c2)cn1 [Compound 26A, 2-(6-(((1S,2S,3R,5R)-2-fluoro-9-azabicyclo[3.3.1]nonan-3-yl)(methyl)amino)pyridazin-3-yl)-5-(5-methylpyrazin-2-yl)phenol] | 6.30 to 7.00 | 7.00 to 7.29 |  | 2.09 | 43.6 | 65 | 77 | 21 |  |  |  |  |  |  |  |  |  |
| CN(c1ccc(-c2ccc(-c3cnc(C#N)cn3)cc2O)nn1)[C@@H]1C[C@H]2CCC[C@H](N2)[C@@H]1F [Compound 28A, 5-(4-(6-(((1S,2S,3R,5R)-2-fluoro-9-azabicyclo[3.3.1]nonan-3-yl)(methyl)amino)pyridazin-3-yl)-3-hydroxyphenyl) pyrazine-2-carbonitrile] | 7.30 to 7.80 |  |  | 1.41 | 28.4 | 40 | 61 | 20 |  | E (501 ≤ E ≤ 10.000) |  |  |  |  |  |  |  |
| CN(c1ccc(-c2ccc(C3=CCCC3)cc2O)nn1)[C@@H]1C[C@H]2CC[C@H](N2)[C@@H]1F [Compound 34A, 5-(cyclopent-1-en-1-yl)-2-(6-(((1S,2S,3R,5R)-2-fluoro-8-azabicyclo[3.2.1]octan-3-yl)(methyl)amino)pyridazin-3-yl)phenol] | 6.30 to 7.00 | 7.30 to 7.80 |  | 0.63 | 1.05 | 8 | 55 | 2 |  |  |  |  |  |  |  |  |  |
| CC(=O)N(C)c1ccc(-c2ccc(N(C)[C@H]3C[C@@H]4CC[C@@H](N4)[C@H]3F)nn2)c(O)c1 [Compound 35B, N-(4-(6-(((1R,2R,3S,5S)-2-fluoro-8-azabicyclo[3.2.1]octan-3-yl)(methyl)amino)pyridazin-3-yl)-3-hydroxyphenyl)-N-methylacetamide] |  | 7.82 to 11.00 |  | 0.23 | 42 | 103 | 99 | 181 | E (501 ≤ E ≤ 10.000) |  |  |  |  |  |  |  |  |
| CN(c1ccc(-c2ccc(-n3cnc(Cl)c3)cc2O)nn1)[C@H]1C[C@@H]2CC(F)(F)[C@H](C1)N2 [Compound 37B, 5-(4-chloro-1H-imidazol-1-yl)-2-(6-(((1R,3S,5S)-6,6-difluoro-8-azabicyclo[3.2.1]octan-3-yl)(methyl)amino)pyridazin-3-yl)phenol] | 7.00 to 7.29 | 6.30 to 7.00 |  | 19 | 32.7 | 54 | 70 | 2 |  |  |  |  |  |  |  |  |  |
| Cc1nc2cc(-c3ccc(N(C)[C@@H]4C[C@H]5CC[C@H](N5)[C@@H]4F)nn3)c(O)cc2o1 [Compound 118A, 5-(6-(((1S,2S,3R,5R)-2-fluoro-8-azabicyclo[3.2.1]octan-3-yl)(methyl)amino)pyridazin-3-yl)-2-methylbenzo[d]oxazol-6-ol] |  |  |  |  |  |  |  |  |  |  | 7.30 to 7.80 |  |  |  |  |  |  |
| Cc1nc2cc(-c3ccc(N(C)[C@H]4C[C@@H]5CC[C@@H](N5)[C@H]4F)nn3)c(O)cc2o1 [Compound 118B, 5-(6-(((1R,2R,3S,5S)-2-fluoro-8-azabicyclo[3.2.1]octan-3-yl)(methyl)amino)pyridazin-3-yl)-2-methylbenzo[d]oxazol-6-ol] |  |  |  |  |  |  |  |  |  |  | 7.82 to 11.00 |  |  |  |  |  |  |
| CN(c1ccc(-c2cc3ccncc3cc2O)nn1)[C@@H]1C[C@H]2CC(F)(F)[C@@H](C1)N2 [Compound 125A, 6-(6-(((1S,3R,5R)-6,6-difluoro-8-azabicyclo[3.2.1]octan-3-yl)(methyl)amino)pyridazin-3-yl)isoquinolin-7-ol] |  |  |  |  |  |  |  |  |  |  | 6.30 to 7.00 | 7.00 to 7.29 | 3 | 14.1 | 43.3 | 63 | 87 |
